pIC50: −log10 of the molar value. Where two headings read alike, the source gives them in different places.
Columns and labels:
NDM-1 = NDM-1 (Klebsiella pneumoniae, UniProt C7C422); test: biochemical; format: biochemical; settings: read-out: NDM-1 IC50
IMP-1 = IMP-1 (Serratia marcescens, UniProt P52699); test: biochemical; format: biochemical; settings: read-out: IMP-1 IC50
VIM-1 = VIM-1 (Pseudomonas aeruginosa (strain ATCC 15692 / DSM 22644 / CIP 104116 / JCM 14847 / LMG 12228 / 1C / PRS 101 / PAO1), UniProt A0A0F7KYQ8); test: Enzyme activity: determination of IC50, fluorescence assay with CCF2-FA substrate (VIM-1); format: biochemical
[1] = test system: Escherichia coli expressing NDM-1 (CLB30016); test: Antibiotic potentiation activity: synergistic concentration (MITC95) with imipenem, OD600 growth; format: cell-based; settings: for Escherichia coli expressing NDM-1 (CLB 30016) MITC95: concentration giving 95% inhibition of bacterial growth
How it was run: (§1)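 Inoculum: saline suspension of overnight colonies, 1:100 into 1.1× CAMHB. Imipenem 4 μg/ml final (alt. 1 μg/ml) + compound; 35 °C, 22–24 h; absorbance read-out.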

[2] = test system: Klebsiella pneumoniae expressing VIM-1 (IHMA599644); test: as above; format: cell-based; settings: for Klebsiella pneumoniae expressing VIM-1 (IHMA 599644) MITC95: concentration giving 95% inhibition of bacterial growth
How it was run: as §1

[3] = test system: Serratia marcescens expressing IMP-1 (CL5741); test: as above; format: cell-based; settings: for Serratia marcescens expressing IMP-1 (CL5741) MITC95: concentration giving 95% inhibition of bacterial growth
How it was run: as §1

[4] = fluorescence assay with CCF2-FA substrate
[5] = VIM-1 IC50, fluorescence assay with CCF2-FA substrate
[6] = CLB30016 (NDM-1), 95% inhibition of bacterial growth
[7] = IHMA599644 (VIM-1), 95% inhibition of bacterial growth
[8] = CL5741 (IMP-1), 95% inhibition of bacterial growth
[9] = fluorescence assay with CCF2-FA substrate, read-out: VIM-1 IC50
[10] = NDM-1 enzyme, CCF2-FA substrate
[11] = IMP-1 enzyme, CCF2-FA substrate
[12] = VIM-1 IC50, VIM-1 enzyme, CCF2-FA substrate
[13] = (CLB30016, NDM-1), 95% growth inhibition
[14] = Klebsiella pneumoniae IHMA599644 (VIM-1), 95% growth inhibition
[15] = Serratia marcescens CL5741 (IMP-1), 95% growth inhibition
[16] = VIM-1 enzyme, CCF2-FA substrate, read-out: VIM-1 IC50

NDM-1, sequence (C7C422 whole entry, looked up, species assumed): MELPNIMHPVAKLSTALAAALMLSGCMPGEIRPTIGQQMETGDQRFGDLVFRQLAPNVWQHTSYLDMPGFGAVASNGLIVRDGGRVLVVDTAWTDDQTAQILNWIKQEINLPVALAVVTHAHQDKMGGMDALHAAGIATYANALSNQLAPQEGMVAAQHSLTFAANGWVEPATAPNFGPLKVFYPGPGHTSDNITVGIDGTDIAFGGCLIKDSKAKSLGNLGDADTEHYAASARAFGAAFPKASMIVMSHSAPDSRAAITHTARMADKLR
IMP-1, sequence (P52699 whole entry, looked up): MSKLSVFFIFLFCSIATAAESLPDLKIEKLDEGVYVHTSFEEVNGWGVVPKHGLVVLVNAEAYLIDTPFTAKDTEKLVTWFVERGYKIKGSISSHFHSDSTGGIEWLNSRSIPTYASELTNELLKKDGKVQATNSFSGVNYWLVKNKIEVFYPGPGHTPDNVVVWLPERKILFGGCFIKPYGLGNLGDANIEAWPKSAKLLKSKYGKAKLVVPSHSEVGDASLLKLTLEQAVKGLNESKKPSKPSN

| Structure (SMILES) | pIC50 (NDM-1; [4]) | pIC50 (IMP-1; [4]) | Escherichia coli MITC95 [1, 6] [µM] | Klebsiella pneumoniae MITC95 [2, 7] [µM] | Serratia marcescens MITC95 [3, 8] [µM] | pIC50 (VIM-1; [9]) | pIC50 (NDM-1; [10]) | pIC50 (IMP-1; [11]) | Escherichia coli MITC95 [1, 13] [µM] | Klebsiella pneumoniae MITC95 [2, 14] [µM] | Serratia marcescens MITC95 [3, 15] [µM] | further results |
| --- | --- | --- | --- | --- | --- | --- | --- | --- | --- | --- | --- | --- |
| N=C(N)N1CCC2(CCC(c3ccc(C(F)(F)F)c(S(N)(=O)=O)c3-c3nnn[nH]3)CC2)CC1 [Example 826, 9-[3-sulfamoyl-2-(1H-tetrazol-5-yl)-4-(trifluoromethyl)phenyl]-3-azaspiro[5.5]undecane-3-carboxamidine] | 9.31 | 8.84 | 1.563 | 25 | 3.125 | – | – | – | – | – | – | pIC50 (VIM-1; [5]): 8.87 |
| N=C(N)N1CCC([C@H]2CC[C@H](c3ccc(C(F)(F)F)c(S(N)(=O)=O)c3-c3nnn[nH]3)CC2)CC1 [Example 825, 4-[4-[3-sulfamoyl-2-(1H-tetrazol-5-yl)-4-(trifluoromethyl)phenyl]cyclohexyl] piperidine-1-carboxamidine] | 9.80 | 9.30 | 0.7813 | 3.125 | 1.563 | 10.09 | – | – | – | – | – | – |
| NS(=O)(=O)c1c(C(F)(F)F)ccc([C@H]2CC[C@H](NCC3CCCN3)CC2)c1-c1nnn[nH]1 (stereo partly drawn) [Example 681, 3-{4-[(pyrrolidin-2-ylmethyl)amino]cyclohex-yl}-2-(1H-tetrazol-5-yl)-6-(trifluoromethyl)benzene sulfonamide] | – | – | – | – | – | – | 8.06 | 7.79 | 1.563 | 6.25 | 3.125 | pIC50 (VIM-1; [12]): 8.15 |
| NS(=O)(=O)c1cccc(-c2cnc(NC3CC3)nc2)c1-c1nnn[nH]1 [Example 123, 3-(2-(cyclopropylamino)pyrimidin-5-yl)-2-(1H-tetrazol-5-yl)benzenesulfonamide] | 8.08 | 6.38 | – | – | – | 6.51 | – | – | – | – | – | Escherichia coli expressing NDM-1 (CLB 30016) MITC95 [1]: 1.563 µM; Klebsiella pneumoniae expressing VIM-1 (IHMA 599644) MITC95 [2]: >200 µM; Serratia marcescens expressing IMP-1 (CL5741) MITC95 [3]: 18.75 µM |
| NCCCCN1CC(c2ccc(-c3ccc(C(F)(F)F)c(S(N)(=O)=O)c3-c3nnn[nH]3)cc2)C1 [Example 817, 4′-[1-(4-aminobutyl)azetidin-3-yl]-2-(1H-tetrazol-5-yl)-4-(trifluoromethyl)biphenyl-3-sulfonamide] | 8.35 | 7.82 | 1.563 | 12.5 | 6.25 | 8.02 | – | – | – | – | – | – |
| NS(=O)(=O)c1cccc(-c2ccc(CN3CC(O)C(F)C3)cc2)c1-c1nnn[nH]1 (stereo not drawn) [Example 396, 4′-[(3-fluoro-4-hydroxypyrrolidin-1-yl)methyl]-2-(1H-tetrazol-5-yl)biphenyl-3-sulfonamide] | – | – | – | – | – | – | – | – | – | – | – | pIC50 (NDM-1; NDM-1 enzyme, CCF2-FA fluorescence assay): 8.49; pIC50 (IMP-1; IMP-1 enzyme, CCF2-FA fluorescence assay): 7.65; pIC50 (VIM-1; VIM-1 enzyme, CCF2-FA fluorescence assay, read-out: VIM-1 IC50): 6.74; Escherichia coli MITC95 ([1]; Escherichia coli expressing NDM-1 (CLB30016), 95% growth inhibition): 1.172 µM; Klebsiella pneumoniae MITC95 ([2]; Klebsiella pneumoniae expressing VIM-1 (IHMA599644), 95% growth inhibition): 100 µM; Serratia marcescens MITC95 ([3]; Serratia marcescens expressing IMP-1 (CL5741), 95% growth inhibition): 1.172 µM |
| NCCN1CC(c2ccc(-c3ccc(C(F)(F)F)c(S(N)(=O)=O)c3-c3nnn[nH]3)cc2)C1 [Example 812, 4′-[1-(2-aminoethyl)azetidin-3-yl]-2-(1H-tetrazol-5-yl)-4-(trifluoromethyl)biphenyl-3-sulfonamide] | 8.57 | 8.24 | 1.563 | 12.5 | 6.25 | 8.41 | – | – | – | – | – | – |
| N[C@@H]1CN(c2ccc(C(F)(F)F)c(S(N)(=O)=O)c2-c2nnn[nH]2)CC12CC2 [Example 754, 3-[(7S)-7-amino-5-azaspiro[2.4]hept-5-yl]-2-(1H-tetrazol-5-yl)-6-(trifluoromethyl) benzenesulfonamide] | 6.22 | 6.06 | 25 | 12.5 | 50 | 8.11 | – | – | – | – | – | – |
| NC[C@H]1CC[C@H](Cc2ccc(-c3ccc(N)nc3)c(-c3nnn[nH]3)c2S(N)(=O)=O)CC1 [Example 579, 6-(((1r,4r)-4-(aminomethyl)cyclohexyl)methyl)-3-(6-aminopyridin-3-yl)-2-(1H-tetrazol-5-yl)benzenesulfonamide] | – | – | – | – | – | – | 8.79 | 7.75 | 0.7813 | 12.5 | 3.125 | pIC50 (VIM-1; [12]): 8.51 |
| Nc1nnc(C2CCN(c3ccc(C(F)(F)F)c(S(N)(=O)=O)c3-c3nnn[nH]3)CC2)s1 [Example 764, 3-[4-(5-amino-1,3,4-thiadiazol-2-yl)piperidin-1-yl]-2-(1H-tetrazol-5-yl)-6-(trifluoromethyl) benzenesulfonamide] | 6.56 | 7.16 | 100 | >200 | 50 | – | – | – | – | – | – | pIC50 (VIM-1; [5]): 7.56 |
| Nc1ccc(-c2ccc(C(F)(F)F)c(S(N)(=O)=O)c2-c2nnn[nH]2)nc1 [Example 562, 3-(5-aminopyridin-2-yl)-2-(1H-tetrazol-5-yl)-6-(trifluoromethyl)benzenesulfonamide] | – | – | – | – | – | – | 8.30 | 8.12 | 0.5859 | 3.125 | 0.3906 | pIC50 (VIM-1; [16]): 8.63 |
| NS(=O)(=O)c1c(C(F)(F)F)ccc(-c2ccc(C3CCN(C[C@H]4CNCCO4)CC3)cc2)c1-c1nnn[nH]1 [Example 670, 4′-{1-[(2R)-morpholin-2-ylmethyl]piperidin-4-yl}-2-(1H-tetrazol-5-yl)-4-(trifluoromethyl)biphenyl-3-sulfonamide] | – | – | – | – | – | – | 8.39 | 8.97 | 1.563 | 25 | 3.125 | pIC50 (VIM-1; [16]): 8.45 |
| Nc1ccc(-c2ccc(CC3CCNCC3)c(S(N)(=O)=O)c2-c2nnn[nH]2)cn1 [Example 576, 3-(6-amino-3-pyridyl)-6-(4-piperidylmethyl)-2-(1H-tetrazol-5-yl)benzenesulfonamide] | – | – | – | – | – | – | 7.91 | 6.78 | 0.5969 | 4.24 | 6.323 | pIC50 (VIM-1; [12]): 7.61 |
| NS(=O)(=O)c1c(C(F)(F)F)ccc(-c2ccc(OC3CNC3)cc2)c1-c1nnn[nH]1 [Example 719, 4′-(azetidin-3-yloxy)-2-(1H-tetrazol-5-yl)-4-(trifluoromethyl)biphenyl-3-sulfonamide] | – | – | – | – | – | – | 8.52 | 8.43 | 3.125 | 3.125 | 3.125 | pIC50 (VIM-1; [12]): 9.26 |
| Nc1ncc(-c2ccc(-c3cccc4sc(N)nc34)c(-c3nn[nH]n3)c2S(N)(=O)=O)s1 [Example 536, 3-(2-Aminobenzo[d]thiazol-4-yl)-6-(2-aminothiazol-5-yl)-2-(2H-tetrazol-5-yl)benzenesulfonamide] | – | – | – | – | – | – | 8.57 | 7.40 | 6.25 | 25 | 50 | pIC50 (VIM-1; [16]): 8.38 |
| NS(=O)(=O)c1c(C(F)(F)F)ccc(-c2cccc3c[n+]([O-])ccc23)c1-c1nn[nH]n1 [Example 516, 5-(3-Sulfamoyl-2-(2H-tetrazol-5-yl)-4-(trifluoromethyl)phenyl)isoquinoline 2-oxide] | – | – | – | – | – | – | 8.62 | 7.90 | 6.25 | 6.25 | 0.7813 | pIC50 (VIM-1; [16]): 9.56 |
| NS(=O)(=O)c1cccc(-c2ccc(C3CCN(CC4CNC4)CC3)cc2)c1-c1nnn[nH]1 [Example 617, 3-[4-[1-(azetidin-3-ylmethyl)-4-piperidyl]phenyl]-2-(1H-tetrazol-5-yl)benzenesulfonamide] | – | – | – | – | – | – | 8.00 | 8.01 | 0.25 | 37.5 | 0.2969 | pIC50 (VIM-1; [16]): 6.48 |
| NS(=O)(=O)c1cccc(-c2cccc3c2NCCC3)c1-c1nnn[nH]1 [Example 121, 3-(1,2,3,4-tetrahydroquinolin-8-yl)-2-(1H-tetrazol-5-yl)benzenesulfonamide] | 8.13 | 6.43 | – | – | – | 6.73 | – | – | – | – | – | Escherichia coli expressing NDM-1 (CLB 30016) MITC95 [1]: 3.125 µM; Klebsiella pneumoniae expressing VIM-1 (IHMA 599644) MITC95 [2]: >200 µM; Serratia marcescens expressing IMP-1 (CL5741) MITC95 [3]: 25 µM |

Source: patent US9708336B2, “Metallo-beta-lactamase inhibitors” (priority 2014, dated 2017)
